The term IC50 denotes the concentration that inhibits the measured activity by half. One may read the GI50 as the concentration at which growth is held to half of that of the control. Read a low GI50 as more potent growth inhibition.

Experiment [1] relates to MKN-45/Ubc-luc cells (unspecific inhibition of luciferase expression or activity). In words: Reporter gene assay specificity control (Ubc-Luc), MKN-45. The class given is cell-based. The settings on record: MKN-45/Ubc-luc specificity control, 24 hrs. An excerpt: (§1) NCI-H2052 mesothelioma cells (RRID: CVCL_1518) bearing Hippo-pathway inactivating mutations upstream of YAP (homozygous deletion of LATS2 and mutation of NF2) were obtained from ATCC (American Type Culture Collection), while SF268 glioma cells (RRID: CVCL_1689) overexpressing YAP due to genomic amplification were obtained from the NCI (National Cancer Institute). MKN-45 gastric adenocarcinoma cells (RRID: CVCL_0434) genomically deleted for YAP were obtained from the JCRB (Japanese Collection of Research Bioresources) Cell Bank.
As a specificity control, MKN-45 cells were stably transduced with a Ubc-Luc reporter construct, in which constitutive expression of firefly luciferase is driven by the promoter of the ubiquitin C housekeeping gene. The resulting cell line, MKN-45/Ubc-luc, was selected and maintained in growth medium (RPMI 1640 (Amimed Cat #1-41F01-I), 2 mM L-Glutamine (Amimed Cat #5-10K50-H), 10% fetal calf serum (Amimed Cat #2-01F30-I Lot K08815P), 1% MEM Non-essential amino acids (Amimed Cat #5-13K00-H), 1× Penicillin/Streptomycin (Amimed Cat #4-01F00-H)) containing 1 μg/ml blasticidin (Gibco Cat #A11139-03).
(§2) Stock solutions of compounds were prepared at a concentration of 10 mM in DMSO and stored at 4° C. Where necessary to afford a full dose-response curve, the stock solutions were pre-diluted in DMSO to 1′000-fold the desired reduced start concentration. On the day after cell seeding, eleven 2-fold serial dilutions of each compound were dispensed directly into the cell assay plates using a HP 300D non-contact Digital Dispenser (TECAN). The final concentration of DMSO was normalized to 0.1% in all wells.
The ability of compounds to inhibit YAP-dependent transcription was assessed in NCI-H2052 Tet-On shYAP_2371 pLenti6 MCAT_Luc and SF268-MCAT_Luc, dox-i-shYAPLevy (Clone 13) cells, while specificity (lack of unspecific inhibition of luciferase expression or activity) was assessed in MKN-45/Ubc-luc cells. The individual cell lines were seeded at 2′500 cells/20 μl/well into white-wall, clear-bottom 384-well plates (Greiner, Cat #781098) and incubated over night at 37° C. prior to addition of serial compound dilutions as described above. Following incubation for 24 hrs at 37° C., compound-mediated modulation of reporter-gene activity was quantified 5 min after addition 20 μL […] BrightGlo (Promega Cat #E2620), by measuring luminescence intensity on a multi-mode plate-reader (TECAN) with an integration time of 100 ms.
(§3) For data analysis, the assay background value determined in wells containing medium, but no cells, was subtracted from all data points.
Background: In a reporter assay the amount or activity of a reporter protein is the signal.

Experiment [2] has as its system YAP-dependent transcription in SF268-MCAT_Luc_dox-i-shYAPLevy (Clone 13) cells. The experiment can be described thus: YAP reporter gene activity assay (MCAT-Luc), SF268. The class given is cell-based. The settings on record: SF268 MCAT_Luc, 24 hrs.
Experiment [3] deals with SF268-MCAT_Luc_dox-i-shYAPLevy (Clone 13) cells. The experiment can be described thus: Proliferation assay (resazurin/AlamarBlue), SF268. The class given is cell-based. To be noted: SF268, 72 hours.
Excerpt: as §1, §2
(§4) After incubation for 72 hours at 37° C., compound-mediated modulation of cell viability was quantified as follows. […] To enable differentiation of cytotoxic from cytostatic compound effects, the number of viable cells on the day of compound addition (day 0) was assessed in a separate cell plate and used to assess the extent of cell viability suppression as described in the following section.
as §3
(§5) The extent of growth inhibition and potential cell kill was assessed by comparing the resorufin levels in compound-treated cells with those present at the time of compound addition. To this end, the following conditional concept was programmatically applied in HELIOS to calculate % growth (% G) for each compound-treated well: % G=(T−V0)/V0))*100 when T<V0, and % G=(T−V0)/(V−V0)))*100 when T≥V0, where V0 is the viability level at time of compound addition, while V and T represent vehicle-control and compound-treated viability levels, respectively, at the end of the compound incubation. 100%, 0% and −100% signify absence of growth inhibition, growth stasis, and complete cell kill, respectively. Compound concentrations leading to half-maximal growth inhibition (GI50) and residual cell viability at the highest tested compound concentration (Data(cmax), expressed in percent) were routinely calculated.
A general note: The colour change of resazurin is a common sign of viable cells or microbes.

The subject of experiment [4] is NCI-H2052 Tet-On shYAP_2371 pLenti6 MCAT_Luc cells. In words: Proliferation assay (resazurin/AlamarBlue), NCI-H2052. The settings on record: NCI-H2052, 72 hours. In kind it is cell-based.
Excerpt: as §1, §2, §4, §3, §5

Experiment [5] concerns YAP-dependent transcription in NCI-H2052 Tet-On shYAP_2371 pLenti6 MCAT_Luc cells. In words: YAP reporter gene activity assay (MCAT-Luc), NCI-H2052. The class given is cell-based. The settings on record: 24 hrs.
Experiment [6] deals with Avi-humanTEAD4^217-434 / Cy5 labeled humanYAP^60-100 (Homo sapiens (Human), UniProt Q15561). In words: In-vitro biochemical TR-FRET assay (TEAD4/YAP). In kind it is binding. To be noted: 1 h at room temperature. As for the experimental part: N-terminus Cy5 labeled humanYAP^60-100 (20 nM) was then added to this preparation. Compounds were dissolved at 10 mM in 100% DMSO and serial dilutions were made in 100% DMSO. The diluted compound solutions were incubated in white 384-well plates (Greiner Bio-One) for 1 h at room temperature with the above described mix. The final DMSO concentration present in the assay was 1%. […] The IC50 values were estimated by fitting the data by nonlinear fit regression (GraphPad Prism).
A general note: TR-FRET usually uses a lanthanide donor and a delayed reading to cut background.

Experiment [7] has as its system MKN-45/Ubc-luc cells. In words: Proliferation assay (resazurin/AlamarBlue), MKN-45. The class given is cell-based. To be noted: MKN-45, 72 hours.
Excerpt: as §1
As a specificity control, MKN-45 cells were stably transduced with a Ubc-Luc reporter construct, in which constitutive expression of firefly luciferase is driven by the promoter of the ubiquitin C housekeeping gene.
as §2, §4, §3, §5

Avi-humanTEAD4^217-434 / Cy5 labeled humanYAP^60-100, sequence (Q15561 217-434): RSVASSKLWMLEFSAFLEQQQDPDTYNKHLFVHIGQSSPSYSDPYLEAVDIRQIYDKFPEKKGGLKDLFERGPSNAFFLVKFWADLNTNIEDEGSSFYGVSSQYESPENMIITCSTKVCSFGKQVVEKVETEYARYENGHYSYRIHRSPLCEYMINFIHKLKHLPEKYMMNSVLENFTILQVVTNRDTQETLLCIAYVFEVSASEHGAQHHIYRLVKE

As for `COc1ccc(C(N)=O)c(-c2c(Cl)c(F)cc3c2[C@H](C)[C@@](CN[C@H]2CC[C@H](C(=O)O)CC2)(c2ccccc2)O3)c1F` (atropisomer, axis not shown) [C-I, (1S,4r)-4-((((2S,3S,4S)-4-(6-carbamoyl-2-fluoro-3-methoxyphenyl)-5-chloro-6-fluoro-3-methyl-2-phenyl-2,3-dihydrobenzofuran-2-yl)methyl)amino)cyclohexane-1-carboxylic acid], the IC50 was > 2000 nM in experiment [1] (Homo sapiens); 180 nM in experiment [2] (Homo sapiens, SF-268); 130 nM in experiment [5] (Homo sapiens); 2.2 nM in experiment [6]. The GI50 in experiment [3] (Homo sapiens, SF-268) was > 2000 nM; in experiment [4] (Homo sapiens) it was 170 nM; in experiment [7] (Homo sapiens) it was > 2000 nM.

Consider `COc1ccc(C(=O)NCCCCCc2cccc3c2CN(C2CCC(=O)NC2=O)C3=O)c(-c2c(Cl)c(F)cc3c2C[C@@](CN)(c2ccccc2)O3)c1F` (stereo partly drawn) [Example 36, 2-((2S,4S)-2-(aminomethyl)-5-chloro-6-fluoro-2-phenyl-2,3-dihydrobenzofuran-4-yl)-N-(5-(2-(2,6-dioxopiperidin-3-yl)-1-oxoisoindolin-4-yl)pentyl)-3-fluoro-4-methoxybenzamide], for which the IC50 in experiment [1] (Homo sapiens) was determined as 8760 nM; in experiment [2] (Homo sapiens, SF-268), 9.3 nM; in experiment [5] (Homo sapiens), 24 nM; in experiment [6], 92 nM. The GI50 in experiment [3] (Homo sapiens, SF-268) is 8420 nM; in experiment [4] (Homo sapiens), 160 nM; in experiment [7] (Homo sapiens) it was 8760 nM.

As to `COc1ccc(C(N)=O)c(-c2c(Cl)c(F)cc3c2[C@H](C)[C@@](CN[C@H]2CC[C@H](C(=O)N4CCC(CC5CCN(C(=O)COc6cc(-c7scnc7C)ccc6CNC(=O)[C@@H]6C[C@@H](O)CN6C(=O)[C@@H](NC(=O)C6(F)CC6)C(C)(C)C)CC5)CC4)CC2)(c2ccccc2)O3)c1F` (atropisomer, axis not shown) [Example 42, (2S,4R)-N-(2-(2-(4-((1-((1S,4r)-4-((((2S,3S,4S)-4-(6-carbamoyl-2-fluoro-3-methoxyphenyl)-5-chloro-6-fluoro-3-methyl-2-phenyl-2,3-dihydrobenzofuran-2-yl)methyl)amino)cyclohexane-1-carbonyl)piperidin-4-yl)methyl)piperidin-1-yl)-2-oxoethoxy)-4-(4-methylthiazol-5-yl)benzyl)-1-((S)-2-(1-fluorocyclopropane-1-carboxamido)-3,3-dimethylbutanoyl)-4-hydroxypyrrolidine-2-carboxamide], the IC50 in experiment [1] (Homo sapiens) is > 2000 nM; in experiment [2] (Homo sapiens, SF-268), 0.45 nM; in experiment [5] (Homo sapiens) it was 4.2 nM; in experiment [6] it was 19 nM. Besides, the GI50 in experiment [3] (Homo sapiens, SF-268) was 31 nM; in experiment [4] (Homo sapiens) it was 31 nM; in experiment [7] (Homo sapiens), > 200 nM.

Consider `CNC(=O)c1cnc(OCCOCCn2cc(-c3ccc4c(c3)CN(C3CCC(=O)NC3=O)C4=O)nn2)c(F)c1-c1c(Cl)c(F)cc2c1C[C@](c1ccccc1)([C@@H]1CCCN1)O2` (stereo partly drawn) [Example 32, 4-((2S,4S)-5-Chloro-6-fluoro-2-phenyl-2-((S)-pyrrolidin-2-yl)-2,3-dihydrobenzofuran-4-yl)-6-(2-(2-(4-(2-(2,6-dioxopiperidin-3-yl)-1-oxoisoindolin-5-yl)-1H-1,2,3-triazol-1-yl)ethoxy)ethoxy)-5-fluoro-N-methylnicotinamide], for which the IC50 in experiment [1] (Homo sapiens) is > 20000 nM; in experiment [2] (Homo sapiens, SF-268), 2750 nM; in experiment [5] (Homo sapiens), 5900 nM; in experiment [6], 23 nM. In addition, the 50% growth inhibitory concentration (GI50) is > 20000 nM in experiment [3] (Homo sapiens, SF-268); 6290 nM in experiment [4] (Homo sapiens); > 20000 nM in experiment [7] (Homo sapiens).

For the compound `COc1ccc(C(=O)N2CCC(CCC3CCN(C(=O)[C@H]4CC[C@H](NC[C@]5(c6ccccc6)Oc6cc(F)c(Cl)c(-c7c(C(N)=O)ccc(OC)c7F)c6[C@@H]5C)CC4)CC3)CC2)cc1N1CCC(=O)NC1=O` (atropisomer, axis not shown) [Example 27, 2-((2S,3S,4S)-5-chloro-2-((((1r,4S)-4-(4-(2-(1-(3-(2,4-dioxotetrahydropyrimidin-1(2H)-yl)-4-methoxybenzoyl)piperidin-4-yl)ethyl)piperidine-1-carbonyl)cyclohexyl)amino)methyl)-6-fluoro-3-methyl-2-phenyl-2,3-dihydrobenzofuran-4-yl)-3-fluoro-4-methoxybenzamide], the IC50 in experiment [1] (Homo sapiens) is > 2000 nM; in experiment [2] (Homo sapiens, SF-268) it was 0.17 nM; in experiment [5] (Homo sapiens) it was 0.66 nM; in experiment [6], 4 nM. The GI50 was 5 nM in experiment [3] (Homo sapiens, SF-268); 3.8 nM in experiment [4] (Homo sapiens); > 2000 nM in experiment [7] (Homo sapiens).

Consider `COc1ccc(C(=O)N2CCC(OC3CCN(CCNC(=O)[C@H]4CC[C@H](NC[C@]5(c6ccccc6)Oc6cc(F)c(Cl)c(-c7c(C(N)=O)ccc(OC)c7F)c6[C@@H]5C)CC4)CC3)CC2)cc1N1CCC(=O)NC1=O` (atropisomer, axis not shown) [Example 4, 2-((2S,3S,4S)-5-chloro-2-((((1r,4S)-4-((2-(4-((1-(3-(2,4-dioxotetrahydropyrimidin-1(2H)-yl)-4-methoxybenzoyl)piperidin-4-yl)oxy)piperidin-1-yl)ethyl)carbamoyl)cyclohexyl)amino)methyl)-6-fluoro-3-methyl-2-phenyl-2,3-dihydrobenzofuran-4-yl)-3-fluoro-4-methoxybenzamide], for which the IC50 was > 20000 nM in experiment [1] (Homo sapiens); 1.7 nM in experiment [2] (Homo sapiens, SF-268); 49 nM in experiment [5] (Homo sapiens); 1.1 nM in experiment [6]. Also, the GI50 was 33 nM in experiment [3] (Homo sapiens, SF-268); 140 nM in experiment [4] (Homo sapiens); > 20000 nM in experiment [7] (Homo sapiens).

On to `COc1ccc(C(N)=O)c(-c2c(Cl)c(F)cc3c2[C@H](C)[C@@](CN[C@H]2CC[C@H](C(=O)OC)CC2)(c2ccccc2)O3)c1F` [C-I-k, Methyl (1S,4r)-4-((((2S,3S,4S)-4-(6-carbamoyl-2-fluoro-3-methoxyphenyl)-5-chloro-6-fluoro-3-methyl-2-phenyl-2,3-dihydrobenzofuran-2-yl)methyl)amino)cyclohexane-1-carboxylate], for which the IC50 in experiment [1] came out at 14300 nM; in experiment [2], 33 nM; in experiment [5], 40 nM; in experiment [6], 1.9 nM. For the same compound, the figures for the GI50 in experiment [3], in experiment [4] and in experiment [7] were 390 nM, 27 nM and 4110 nM, respectively.
